In patent US20250108038A1 (priority 2023, published 2025):
Several values for one entry are separate records, joined by “and”; a condition that tells them apart may be missing. Equal values may be shown once.

Assay: Pharmacokinetics after single oral administration to beagle dogs;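 for AUC0-inf of Compound A (as titled): compound A is measured in plasma as a metabolite of the dosed analog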;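 for AUC0-last of Compound A (as titled): compound A is measured in plasma as a metabolite of the dosed analog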;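 for Tlast of Compound A (as titled): compound A is measured in plasma as a metabolite of the dosed analog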;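 for Tmax of Compound A (as titled): compound A is measured in plasma as a metabolite of the dosed analog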
Format: in vivo
Settings: for Cmax of the analog (Compound I-17/I-19) / T1/2 of the analog (Compound I-17/I-19) / Tmax of the analog (Compound I-17/I-19): oral 10 mg/kg; for plasma concentration of Compound I-17/I-19: single PO 10 mg/kg, 0.500 h
Protocol: The concentrations of the analytes in the plasma were quantified by liquid chromatography tandem mass spectrometry (LC-MS/MS).
The bioanalytical assay provided a lower limit of quantification (LLOQ) of 1.0 ng/mL and an upper limit of quantification (ULOQ) of 3000 ng/mL for all the analytes. The data of plasma concentration vs. time were analyzed using Phoenix WinNonlin 8.3 to determine the PK properties of the analytes.
The test articles were administered orally by gavage. The nominal dose volume was 5 mL/kg for both analogs.
The observation included appearance, behavior, morbidity and mortality.
Approximately 0.5 mL blood was collected at each scheduled time point from the peripheral veins.
The plasma samples were placed in microcentrifuge tubes and stored at −70+10° C. until analysis.

[1] = after single PO 10 mg/kg of Compound I-17/I-19, female individual
[2] = after single PO 10 mg/kg of Compound I-17/I-19, female individual, 10 mg/kg
[3] = after single PO 10 mg/kg of Compound I-17/I-19, female mean
[4] = after single PO 10 mg/kg of Compound I-17/I-19, male individual
[5] = after single PO 10 mg/kg of Compound I-17/I-19, male individual, 10 mg/kg
[6] = after single PO 10 mg/kg of Compound I-17/I-19, male mean
[7] = after single PO 80 mg/kg (so in the source) of Compound I-17/I-19, female individual, 80 mg/kg
[8] = after single PO 80 mg/kg (so in the source) of Compound I-17/I-19, female mean
[9] = after single PO 80 mg/kg (so in the source) of Compound I-17/I-19, male individual
[10] = after single PO 80 mg/kg (so in the source) of Compound I-17/I-19, male individual, 80 mg/kg
[11] = after single PO 80 mg/kg (so in the source) of Compound I-17/I-19, male mean

SMILES: Clc1ccc(C2(OCC3OCCO3)c3ccccc3C3=NCCN32)cc1 (centres unmarked) [Compound I-19]
- Tlast of Compound A (as titled) [1]: 8.00 h
- Tmax of Compound A (as titled) [1]: 1.00 h
- AUC0-inf of Compound A (as titled) [2]: 786 ng·h/mL and 1047 ng·h/mL
- AUC0-last of Compound A (as titled) [2]: 739 ng·h/mL and 932 ng·h/mL
- Cmax of Compound A (as titled) [2]: 258 ng/mL and 262 ng/mL
- MRT0-inf of Compound A (as titled) [2]: 2.82 h and 3.68 h
- MRT0-last of Compound A (as titled) [2]: 2.29 h and 2.65 h
- T1/2 of Compound A (as titled) [2]: 2.23 h and 2.77 h
- AUC0-inf of Compound A (as titled) [3]: 916 ng·h/mL
- AUC0-last of Compound A (as titled) [3]: 836 ng·h/mL
- Cmax of Compound A (as titled) [3]: 260 ng/mL
- MRT0-inf of Compound A (as titled) [3]: 3.25 h
- MRT0-last of Compound A (as titled) [3]: 2.47 h
- T1/2 of Compound A (as titled) [3]: 2.50 h
- Tlast of Compound A (as titled) [3]: 8.00 h
- Tmax of Compound A (as titled) [3]: 1.00 h
- Tlast of Compound A (as titled) [4]: 8.00 h
- Tmax of Compound A (as titled) [4]: 1.00 h
- AUC0-inf of Compound A (as titled) [5]: 843 ng·h/mL and 756 ng·h/mL
- AUC0-last of Compound A (as titled) [5]: 801 ng·h/mL and 737 ng·h/mL
- Cmax of Compound A (as titled) [5]: 312 ng/mL and 281 ng/mL
- MRT0-inf of Compound A (as titled) [5]: 2.72 h and 2.50 h
- MRT0-last of Compound A (as titled) [5]: 2.29 h and 2.31 h
- T1/2 of Compound A (as titled) [5]: 1.93 h and 1.39 h
- AUC0-inf of Compound A (as titled) [6]: 799 ng·h/mL
- AUC0-last of Compound A (as titled) [6]: 769 ng·h/mL
- Cmax of Compound A (as titled) [6]: 297 ng/mL
- MRT0-inf of Compound A (as titled) [6]: 2.61 h
- MRT0-last of Compound A (as titled) [6]: 2.30 h
- T1/2 of Compound A (as titled) [6]: 1.66 h
- Tlast of Compound A (as titled) [6]: 8.00 h
- Tmax of Compound A (as titled) [6]: 1.00 h
- Tlast of Compound A (after single PO 80 mg/kg (so in the source) of Compound I-17/I-19, female individual): 24.0 h
- AUC0-inf of Compound A [7]: 982 ng·h/mL and 1387 ng·h/mL
- AUC0-last of Compound A [7]: 919 ng·h/mL and 1108 ng·h/mL
- Cmax of Compound A [7]: 160 ng/mL and 113 ng/mL
- MRT0-inf of Compound A [7]: 7.98 h and 14.9 h
- MRT0-last of Compound A [7]: 6.23 h and 8.76 h
- T1/2 of Compound A [7]: 6.54 h and 10.7 h
- Tmax of Compound A [7]: 0.500 h and 2.00 h
- AUC0-inf of Compound A [8]: 1185 ng·h/mL
- AUC0-last of Compound A [8]: 1013 ng·h/mL
- Cmax of Compound A [8]: 137 ng/mL
- MRT0-inf of Compound A [8]: 11.5 h
- MRT0-last of Compound A [8]: 7.49 h
- T1/2 of Compound A [8]: 8.61 h
- Tlast of Compound A [8]: 24.0 h
- Tmax of Compound A [8]: 1.25 h
- Tlast of Compound A [9]: 24.0 h
- Tmax of Compound A [9]: 1.00 h
- AUC0-inf of Compound A [10]: 1022 ng·h/mL and 661 ng·h/mL
- AUC0-last of Compound A [10]: 958 ng·h/mL and 622 ng·h/mL
- Cmax of Compound A [10]: 136 ng/mL and 111 ng/mL
- MRT0-inf of Compound A [10]: 8.63 h and 7.66 h
- MRT0-last of Compound A [10]: 7.01 h and 6.08 h
- T1/2 of Compound A [10]: 6.05 h and 6.28 h
- AUC0-inf of Compound A [11]: 841 ng·h/mL
- AUC0-last of Compound A [11]: 790 ng·h/mL
- Cmax of Compound A [11]: 123 ng/mL
- MRT0-inf of Compound A [11]: 8.14 h
- MRT0-last of Compound A [11]: 6.54 h
- T1/2 of Compound A [11]: 6.16 h
- Tlast of Compound A [11]: 24.0 h
- Tmax of Compound A [11]: 1.00 h
- Cmax and AUC0-last of Compound A, compared to Compound I-17 (male and female dogs, PO): about 2.5 ×
- Cmax of the analog (Compound I-17/I-19) (female dogs): 260 ng/mL
- T1/2 of the analog (Compound I-17/I-19) (female dogs): 2.50 hours
- Tmax of the analog (Compound I-17/I-19) (female dogs): 1 hour
- Cmax of the analog (Compound I-17/I-19) (male dogs): 297 ng/mL
- T1/2 of the analog (Compound I-17/I-19) (male dogs): 1.66 hours
- Tmax of the analog (Compound I-17/I-19) (male dogs): 1 hour
- plasma concentration of Compound I-17/I-19 (female individual, 10 mg/kg): 257 ng/mL and 246 ng/mL
- plasma concentration of Compound I-17/I-19 (female mean): 252 ng/mL
- plasma concentration of Compound I-17/I-19 (male individual, 10 mg/kg): 259 ng/mL and 195 ng/mL
